Assay results reported in ChEMBL document CHEMBL1139192, “Novel bis(indolyl)maleimide pyridinophanes that are potent, selective inhibitors of glycogen synthase kinase-3” (Bioorg Med Chem Lett, 2007).
Activity calls are given as the source filed them. The calls are words filed in the database; no cut-off is given here.

Key:
[1] = target: RAF proto-oncogene serine/threonine-protein kinase (Homo sapiens) (UniProt P04049); assay: Residual activity of humna c-RAF at 1 uM relative to control
[2] = species on record: Homo sapiens; assay: Inhibition of human CDK2/Cyclin E at 1 uM relative to control; values are per cent of control
[3] = target: Macrophage colony-stimulating factor 1 receptor (Homo sapiens) (UniProt P07333); assay: Residual activity of human Fms at 1 uM relative to control
[4] = target: T1, Dual specificity mitogen-activated protein kinase kinase 4 (Mus musculus) (UniProt P47809); assay: Inhibition of mouse MKK4 Met at 1 uM relative to control; values are per cent of control
T1 sequence (whole entry): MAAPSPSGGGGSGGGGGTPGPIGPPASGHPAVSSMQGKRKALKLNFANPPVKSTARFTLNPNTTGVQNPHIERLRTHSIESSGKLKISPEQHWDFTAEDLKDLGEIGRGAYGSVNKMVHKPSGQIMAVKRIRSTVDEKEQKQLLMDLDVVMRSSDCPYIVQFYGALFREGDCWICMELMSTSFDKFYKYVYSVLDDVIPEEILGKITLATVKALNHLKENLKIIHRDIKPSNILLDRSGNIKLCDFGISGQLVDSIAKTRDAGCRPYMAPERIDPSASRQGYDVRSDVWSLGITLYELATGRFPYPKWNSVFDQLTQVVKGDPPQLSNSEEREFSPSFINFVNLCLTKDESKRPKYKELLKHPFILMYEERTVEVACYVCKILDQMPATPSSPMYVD

[5] = target: T2, Serine/threonine-protein kinase Chk1 (Homo sapiens) (UniProt O14757); assay: Inhibition of human CHK1 at 1 uM relative to control; values are per cent of control
T2 sequence (whole entry): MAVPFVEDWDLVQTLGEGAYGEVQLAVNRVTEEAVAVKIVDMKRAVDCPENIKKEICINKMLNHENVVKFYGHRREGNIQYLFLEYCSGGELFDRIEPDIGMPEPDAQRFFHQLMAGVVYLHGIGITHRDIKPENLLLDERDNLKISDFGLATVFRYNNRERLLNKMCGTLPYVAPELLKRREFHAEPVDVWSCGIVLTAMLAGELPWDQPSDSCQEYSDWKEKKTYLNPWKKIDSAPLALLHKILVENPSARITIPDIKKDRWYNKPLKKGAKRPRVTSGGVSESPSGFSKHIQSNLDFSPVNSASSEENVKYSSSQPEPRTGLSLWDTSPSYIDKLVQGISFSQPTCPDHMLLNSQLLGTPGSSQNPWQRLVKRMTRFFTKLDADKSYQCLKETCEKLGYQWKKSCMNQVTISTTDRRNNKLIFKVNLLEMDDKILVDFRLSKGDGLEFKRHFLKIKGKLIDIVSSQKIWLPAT

[6] = species on record: Homo sapiens; assay: Inhibition of human CDK7/Cyclin H at 1 uM relative to control; values are per cent of control
[7] = target: T3, Aurora kinase A (Homo sapiens) (UniProt O14965); assay: Residual activity of human Aurora A at 1 uM relative to control
T3 sequence (whole entry): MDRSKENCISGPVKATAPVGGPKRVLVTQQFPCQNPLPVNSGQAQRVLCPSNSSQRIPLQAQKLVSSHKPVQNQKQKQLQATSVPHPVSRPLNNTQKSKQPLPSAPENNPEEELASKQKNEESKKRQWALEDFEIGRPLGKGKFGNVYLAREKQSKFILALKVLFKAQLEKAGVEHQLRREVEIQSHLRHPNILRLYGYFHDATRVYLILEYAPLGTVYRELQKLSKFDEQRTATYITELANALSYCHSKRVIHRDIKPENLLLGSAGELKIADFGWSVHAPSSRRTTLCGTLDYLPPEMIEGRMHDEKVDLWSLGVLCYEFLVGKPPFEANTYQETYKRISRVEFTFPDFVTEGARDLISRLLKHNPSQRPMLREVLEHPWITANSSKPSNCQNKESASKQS

[8] = species on record: Homo sapiens; assay: Residual activity of human CDK6/Cyclin D at 1 uM relative to control
[9] = species on record: Homo sapiens; assay: Residual activity of human PAR1B-alpha at 1 uM relative to control
[10] = target: Glycogen synthase kinase-3 beta (Homo sapiens, UniProt P49841); assay: Residual activity of human GSK3-beta at 1 uM relative to control
[11] = target: T4, Inhibitor of nuclear factor kappa-B kinase subunit alpha (Homo sapiens) (UniProt O15111); assay: Residual activity of human IKKalpha at 1 uM relative to control
T4 sequence (whole entry): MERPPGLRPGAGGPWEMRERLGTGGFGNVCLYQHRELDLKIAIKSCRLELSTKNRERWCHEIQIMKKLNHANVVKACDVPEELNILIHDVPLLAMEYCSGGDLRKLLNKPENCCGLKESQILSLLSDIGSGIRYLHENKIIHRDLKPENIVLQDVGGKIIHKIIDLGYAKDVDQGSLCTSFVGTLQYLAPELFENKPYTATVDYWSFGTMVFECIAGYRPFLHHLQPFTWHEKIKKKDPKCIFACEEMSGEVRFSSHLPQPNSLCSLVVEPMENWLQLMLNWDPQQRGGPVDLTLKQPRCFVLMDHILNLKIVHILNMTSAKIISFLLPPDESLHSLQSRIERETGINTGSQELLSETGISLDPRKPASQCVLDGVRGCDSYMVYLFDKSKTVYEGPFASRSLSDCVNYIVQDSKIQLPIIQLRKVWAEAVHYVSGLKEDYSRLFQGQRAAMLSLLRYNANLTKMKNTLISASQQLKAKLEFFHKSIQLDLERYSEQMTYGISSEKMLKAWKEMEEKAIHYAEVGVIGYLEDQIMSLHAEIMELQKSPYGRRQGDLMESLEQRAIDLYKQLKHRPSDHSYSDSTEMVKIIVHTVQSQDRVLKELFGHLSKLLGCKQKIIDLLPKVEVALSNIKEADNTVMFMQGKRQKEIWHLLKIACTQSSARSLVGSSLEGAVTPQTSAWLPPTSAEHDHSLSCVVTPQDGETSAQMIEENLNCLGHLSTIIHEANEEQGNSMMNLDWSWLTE

[12] = species on record: Rattus norvegicus; assay: Inhibition of rat CaMK2 at 1 uM relative to control; values are per cent of control
[13] = target: Cytoplasmic tyrosine-protein kinase BMX (Homo sapiens) (UniProt P51813); assay: Inhibition of human BMX kinase at 1 uM relative to control; values are per cent of control
[14] = target: T5, BDNF/NT-3 growth factors receptor (Homo sapiens, UniProt Q16620); assay: Inhibition of human TrkB
Target sequence in this assay (Q16620 whole entry): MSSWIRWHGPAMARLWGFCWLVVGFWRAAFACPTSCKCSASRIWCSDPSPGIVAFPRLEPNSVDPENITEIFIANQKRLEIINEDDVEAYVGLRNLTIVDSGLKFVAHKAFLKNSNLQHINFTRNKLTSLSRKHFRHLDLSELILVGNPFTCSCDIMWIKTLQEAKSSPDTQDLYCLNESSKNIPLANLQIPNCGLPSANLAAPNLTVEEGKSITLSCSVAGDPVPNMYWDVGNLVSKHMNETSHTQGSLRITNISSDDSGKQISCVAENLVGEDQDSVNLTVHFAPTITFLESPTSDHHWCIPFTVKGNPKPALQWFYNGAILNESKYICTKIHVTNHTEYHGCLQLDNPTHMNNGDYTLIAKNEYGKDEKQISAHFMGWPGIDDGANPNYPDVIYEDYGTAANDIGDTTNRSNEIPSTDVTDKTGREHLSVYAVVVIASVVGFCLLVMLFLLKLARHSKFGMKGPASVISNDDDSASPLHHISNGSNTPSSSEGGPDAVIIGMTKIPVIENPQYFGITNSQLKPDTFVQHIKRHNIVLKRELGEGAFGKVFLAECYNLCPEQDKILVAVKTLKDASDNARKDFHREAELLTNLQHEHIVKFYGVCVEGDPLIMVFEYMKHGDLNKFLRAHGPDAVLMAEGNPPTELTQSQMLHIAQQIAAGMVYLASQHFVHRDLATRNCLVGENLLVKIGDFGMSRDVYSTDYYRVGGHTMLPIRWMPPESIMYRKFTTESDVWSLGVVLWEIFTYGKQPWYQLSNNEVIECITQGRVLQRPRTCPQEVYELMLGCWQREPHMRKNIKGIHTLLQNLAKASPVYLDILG

[15] = target: T5, BDNF/NT-3 growth factors receptor; assay: Inhibition of human TrkB at 1 uM relative to control
Target sequence in this assay (Q16620 32-822 limits assumed): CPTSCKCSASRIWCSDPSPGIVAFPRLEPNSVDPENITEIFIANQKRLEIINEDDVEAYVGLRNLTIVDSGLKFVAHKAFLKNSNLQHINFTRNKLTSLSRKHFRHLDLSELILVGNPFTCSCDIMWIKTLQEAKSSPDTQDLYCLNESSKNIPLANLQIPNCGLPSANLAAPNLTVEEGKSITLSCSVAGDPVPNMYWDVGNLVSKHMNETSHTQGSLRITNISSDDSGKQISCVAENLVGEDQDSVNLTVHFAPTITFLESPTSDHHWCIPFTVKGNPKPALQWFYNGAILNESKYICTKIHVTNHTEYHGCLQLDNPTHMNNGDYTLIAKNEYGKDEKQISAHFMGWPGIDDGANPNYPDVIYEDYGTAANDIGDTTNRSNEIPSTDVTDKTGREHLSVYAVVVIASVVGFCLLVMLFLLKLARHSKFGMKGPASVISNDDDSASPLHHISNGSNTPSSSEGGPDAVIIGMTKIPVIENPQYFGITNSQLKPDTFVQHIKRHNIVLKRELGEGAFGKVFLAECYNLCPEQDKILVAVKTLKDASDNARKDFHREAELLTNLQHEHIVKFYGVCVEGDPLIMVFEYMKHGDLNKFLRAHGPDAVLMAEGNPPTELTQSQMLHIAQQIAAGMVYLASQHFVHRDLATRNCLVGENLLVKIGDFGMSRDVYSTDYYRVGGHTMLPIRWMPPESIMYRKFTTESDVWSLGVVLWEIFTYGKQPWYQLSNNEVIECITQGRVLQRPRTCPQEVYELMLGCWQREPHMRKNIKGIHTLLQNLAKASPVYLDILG

Chain of Macrophage colony-stimulating factor 1 receptor (Homo sapiens) (P07333 whole entry): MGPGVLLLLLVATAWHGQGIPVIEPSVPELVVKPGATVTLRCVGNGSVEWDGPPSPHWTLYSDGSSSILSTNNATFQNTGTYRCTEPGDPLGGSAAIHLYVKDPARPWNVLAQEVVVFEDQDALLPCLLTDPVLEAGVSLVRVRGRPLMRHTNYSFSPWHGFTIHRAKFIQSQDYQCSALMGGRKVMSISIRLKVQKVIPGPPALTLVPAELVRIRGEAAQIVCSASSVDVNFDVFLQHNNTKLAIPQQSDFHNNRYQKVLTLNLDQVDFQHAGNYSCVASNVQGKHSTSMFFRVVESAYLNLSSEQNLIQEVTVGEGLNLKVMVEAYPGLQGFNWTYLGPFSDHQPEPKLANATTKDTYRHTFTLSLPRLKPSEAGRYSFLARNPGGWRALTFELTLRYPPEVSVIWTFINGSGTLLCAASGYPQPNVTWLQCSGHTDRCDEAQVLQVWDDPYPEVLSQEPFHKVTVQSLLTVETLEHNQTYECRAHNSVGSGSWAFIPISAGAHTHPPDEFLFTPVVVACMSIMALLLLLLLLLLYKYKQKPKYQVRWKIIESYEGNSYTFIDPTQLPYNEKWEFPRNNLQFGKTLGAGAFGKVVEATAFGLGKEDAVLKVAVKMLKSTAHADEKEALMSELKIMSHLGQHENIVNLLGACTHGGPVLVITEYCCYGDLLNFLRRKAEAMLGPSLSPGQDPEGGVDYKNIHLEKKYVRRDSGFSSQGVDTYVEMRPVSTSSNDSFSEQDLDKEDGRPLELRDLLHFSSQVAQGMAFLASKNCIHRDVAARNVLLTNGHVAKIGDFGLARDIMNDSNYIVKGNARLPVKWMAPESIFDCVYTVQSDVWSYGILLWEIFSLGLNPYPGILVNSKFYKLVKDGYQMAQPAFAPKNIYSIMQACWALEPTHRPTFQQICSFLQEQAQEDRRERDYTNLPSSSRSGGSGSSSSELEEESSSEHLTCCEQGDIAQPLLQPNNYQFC
Chain of Glycogen synthase kinase-3 beta (P49841 whole entry, looked up): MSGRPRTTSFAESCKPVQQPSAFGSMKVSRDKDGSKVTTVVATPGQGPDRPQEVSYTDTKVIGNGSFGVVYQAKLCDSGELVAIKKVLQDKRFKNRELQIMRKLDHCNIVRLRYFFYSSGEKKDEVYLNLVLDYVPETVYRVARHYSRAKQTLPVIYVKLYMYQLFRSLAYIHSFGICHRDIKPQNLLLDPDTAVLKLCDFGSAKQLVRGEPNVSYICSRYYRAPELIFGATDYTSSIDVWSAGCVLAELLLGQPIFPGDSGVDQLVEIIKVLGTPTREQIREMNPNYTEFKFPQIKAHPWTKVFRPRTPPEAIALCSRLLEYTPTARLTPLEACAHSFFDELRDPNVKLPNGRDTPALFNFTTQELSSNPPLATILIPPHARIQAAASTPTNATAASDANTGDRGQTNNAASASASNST
Chain of RAF proto-oncogene serine/threonine-protein kinase (Homo sapiens) (P04049 whole entry): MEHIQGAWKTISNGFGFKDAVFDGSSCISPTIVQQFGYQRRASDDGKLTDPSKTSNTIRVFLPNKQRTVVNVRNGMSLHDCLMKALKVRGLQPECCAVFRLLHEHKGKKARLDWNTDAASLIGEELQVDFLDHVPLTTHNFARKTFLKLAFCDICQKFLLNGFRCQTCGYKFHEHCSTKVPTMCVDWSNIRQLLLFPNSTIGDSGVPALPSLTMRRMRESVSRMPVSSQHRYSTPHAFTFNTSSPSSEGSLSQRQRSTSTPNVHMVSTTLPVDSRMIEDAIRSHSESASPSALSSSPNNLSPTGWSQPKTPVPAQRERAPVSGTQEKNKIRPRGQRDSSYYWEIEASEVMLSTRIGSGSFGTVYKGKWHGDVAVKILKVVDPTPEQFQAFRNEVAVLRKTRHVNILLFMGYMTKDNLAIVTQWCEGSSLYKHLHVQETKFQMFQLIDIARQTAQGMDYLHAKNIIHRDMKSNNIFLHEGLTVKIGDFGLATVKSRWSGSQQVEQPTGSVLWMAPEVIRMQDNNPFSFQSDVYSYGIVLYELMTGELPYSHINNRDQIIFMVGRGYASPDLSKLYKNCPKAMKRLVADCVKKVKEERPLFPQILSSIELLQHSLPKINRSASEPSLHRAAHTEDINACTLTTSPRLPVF
Chain of Cytoplasmic tyrosine-protein kinase BMX (Homo sapiens) (P51813 whole entry): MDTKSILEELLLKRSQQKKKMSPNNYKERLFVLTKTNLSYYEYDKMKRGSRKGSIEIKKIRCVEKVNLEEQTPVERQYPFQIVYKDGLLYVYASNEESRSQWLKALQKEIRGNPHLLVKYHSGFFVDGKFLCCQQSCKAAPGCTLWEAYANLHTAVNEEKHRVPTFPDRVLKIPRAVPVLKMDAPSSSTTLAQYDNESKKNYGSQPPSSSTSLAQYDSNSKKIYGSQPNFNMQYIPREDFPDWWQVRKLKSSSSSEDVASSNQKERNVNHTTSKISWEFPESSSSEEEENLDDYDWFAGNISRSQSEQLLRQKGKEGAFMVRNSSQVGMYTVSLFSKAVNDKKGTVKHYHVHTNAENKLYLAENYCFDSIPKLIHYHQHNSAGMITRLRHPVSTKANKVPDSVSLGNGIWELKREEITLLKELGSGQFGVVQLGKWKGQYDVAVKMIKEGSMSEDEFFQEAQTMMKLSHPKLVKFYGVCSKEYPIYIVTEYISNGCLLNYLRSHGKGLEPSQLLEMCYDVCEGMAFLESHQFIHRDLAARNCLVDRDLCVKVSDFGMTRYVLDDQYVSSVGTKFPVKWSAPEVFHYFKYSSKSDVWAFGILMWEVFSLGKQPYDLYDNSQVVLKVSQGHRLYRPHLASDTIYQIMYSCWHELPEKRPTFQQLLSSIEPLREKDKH

SMILES	residual activity [1] [%]	residual activity [2] [%]	residual activity [3] [%]	residual activity [4] [%]	residual activity [5] [%]	residual activity [6] [%]	residual activity [7] [%]	residual activity [8] [%]	residual activity [9] [%]	residual activity [10] [%]	residual activity [11] [%]	residual activity [12] [%]	residual activity [13] [%]	IC50 [14] [µM]	Activity [15]
O=C1NC(=O)C2=C1c1cn(c3ccccc13)CCCc1ccc(c(N3CCCC3)n1)CCCn1cc2c2ccccc21	85	88	106	113	106	111	106	92	101	7	121	–	–	–	–
CN(C)c1nc2ccc1CCCn1cc(c3ccccc31)C1=C(C(=O)NC1=O)c1cn(c3ccccc13)CC2	103	54	94	130	105	89	109	86	94	1	92	92	101	> 3	inactive
CN(C)c1cc2cc(n1)CCCn1cc(c3ccccc31)C1=C(C(=O)NC1=O)c1cn(c3ccccc13)CCC2	87	84	101	119	101	108	111	74	100	1	133	107	–	–	–
O=C1NC(=O)C2=C1c1cn(c3ccccc13)CCCc1cc(nc(N3CCCC3)c1)CCCn1cc2c2ccccc21	92	88	99	119	110	107	111	82	96	3	132	109	–	–	–
